# Data reported in patent US20160237491A1, “METHODS FOR TREATING HCV” (AbbVie Inc., priority 2013, published 2016).
# Test system: HCV
# Experiment: Viral load in treatment-naïve patients on Compound 1 and ritonavir for 3 days, then added peginterferon and ribavirin, grouped by IL28B PM02 methylation
# Format: in vivo, human
# Conditions: FIG. 3
# Protocol: Twenty-one (21) treatment-naïve patients were included in the study. The patients received Compound 1 and ritonavir for three days followed by the addition of peginterferon and ribavirin for a total of 12 weeks of combination treatment. DNA samples obtained prior to the initiation of treatment were analyzed for methylation in a CpG island in the IL28B promoter corresponding to SEQ ID NO:2 (PM02). Subjects were grouped based on methylation level of PM02. Eleven (11) subjects had methylation values below 45% (diamonds). Ten (10) subjects had methylation values above 45% (squares). Viral load was assessed on Day 1 (“D1”), Day 2 (“D2”), Day 3 (“D3”), Day 4 (“D4”), Day 5 (“D5”), and Day 10 (“D10”) of treatment.
structure (smiles),measurement,setting,value
"Cc1cnc(C(=O)N[C@H]2CCCCC/C=C\[C@@H]3C[C@@]3(C(=O)NS(=O)(=O)C3CC3)NC(=O)[C@@H]3C[C@@H](Oc4nc5ccccc5c5ccccc45)CN3C2=O)cn1 [Compound 1, (2R,6S,13aS,14aR,16aS,Z)—N-(cyclopropylsulfonyl)-6-(5-methylpyrazine-2-carboxamido)-5,16-dioxo-2-(phenanthridin-6-yloxy)-1,2,3,5,6,7,8,9,10,11,13a,14,14a,15,16,16a-hexadecahydrocyclopropa[e]pyrrolo[1,2-a][1,4]diazacyclopentadecine-14a-carboxamide]",reduction in viral load,"after 10 days of treatment, Compound 1 + ritonavir 3 days, then peginterferon and ribavirin added, both groups (PM02 methylation below 45% n=11, above 45% n=10)",dramatic reduction in viral load
same,effect of PM02 methylation status on response,"treatment-naïve patients, 10 days of treatment",does not affect response
